pIC50: −log10 of the molar value. A value given as a limit tells only on which side of the number the result lay.

For this assay, the target named is T1, human IKK-β (Homo sapiens, UniProt O14920).
T1 construct: A cDNA fragment encoding human IKK-β open reading frame was generated by PCR; His tag (from pcDNA3.1/His C); made in house; host or cells: Sf21 insect cells (baculovirus); substrate made in E. coli
T1 sequence (O14920 1-756): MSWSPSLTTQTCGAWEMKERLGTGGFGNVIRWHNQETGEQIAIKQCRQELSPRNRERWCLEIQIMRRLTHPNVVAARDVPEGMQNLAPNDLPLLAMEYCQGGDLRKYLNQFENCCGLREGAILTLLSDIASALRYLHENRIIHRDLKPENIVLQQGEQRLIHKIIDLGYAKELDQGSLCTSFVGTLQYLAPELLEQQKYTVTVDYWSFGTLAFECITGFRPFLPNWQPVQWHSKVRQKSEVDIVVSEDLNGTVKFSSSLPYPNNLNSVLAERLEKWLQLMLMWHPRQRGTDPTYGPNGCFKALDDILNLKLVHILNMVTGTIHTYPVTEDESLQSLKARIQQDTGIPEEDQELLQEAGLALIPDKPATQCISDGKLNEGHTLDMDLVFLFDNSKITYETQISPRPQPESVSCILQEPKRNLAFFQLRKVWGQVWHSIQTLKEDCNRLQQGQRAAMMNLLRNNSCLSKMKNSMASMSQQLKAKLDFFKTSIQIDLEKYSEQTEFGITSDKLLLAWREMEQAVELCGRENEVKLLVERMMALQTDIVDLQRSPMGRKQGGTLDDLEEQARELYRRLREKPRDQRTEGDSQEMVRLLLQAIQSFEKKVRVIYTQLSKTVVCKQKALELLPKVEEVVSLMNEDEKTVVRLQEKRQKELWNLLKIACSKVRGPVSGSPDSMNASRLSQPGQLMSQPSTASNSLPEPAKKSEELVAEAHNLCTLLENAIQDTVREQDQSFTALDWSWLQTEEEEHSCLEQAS
Put plainly: IKK-β kinase inhibitory assay. In kind it is biochemical. Conditions: compounds as yielded by solid phase synthesis, purity about 40 to 90%, read-out: In vitro activity grade (In vitro IC50). The gist of the method: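 His-tagged human IKK-β from baculovirus-infected Sf21 cells (0.6 μg/ml final) phosphorylates biotinylated GST-IκBα(1-54) (0.2 μM) in Tris-HCl pH 7.6 buffer with MgCl2. ATP with [γ-33P]ATP added, then 2 h at room temperature. Biotinylated substrate captured on streptavidin plates; bound radioactivity counted by scintillation.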
`N#Cc1c(C2CCNCC2)cc(-c2ccccc2O)nc1N` [Example 1-13]: the pIC50 – broadly, the IC50 on a negative log10 scale, so that one unit is a factor of ten – is over 6.30.
Take `N#Cc1c(C2CCCCN2)cc(-c2ccccc2O)nc1N` (centres unmarked) [Example 1-14]: the pIC50 was 5.70 to 6.30.
Regarding `N#Cc1c(C2CNCCN2)cc(-c2ccccc2O)nc1N` (centres unmarked) [Example 1-15], the pIC50 was 5.70 to 6.30.
In the case of `Cc1cccc(-c2cc(C3CCCNC3)c(C#N)c(N)n2)c1O` (centres unmarked) [Example 1-17] it was 5.70 to 6.30.
Consider `N#Cc1c(C2CCCNC2)cc(-c2ccc(O)cc2O)nc1N` (centres unmarked) [Example 1-18], for which the pIC50 was 5.70 to 6.30.
Regarding `N#Cc1c(C2CCCNC2)cc(-c2cccc(F)c2O)nc1N` (centres unmarked) [Example 1-19], the pIC50 was over 6.30.
On to `N#Cc1c(C2CCCNC2)cc(-c2cccc(Cl)c2O)nc1N` (centres unmarked) [Example 1-20], for which the pIC50 was over 6.30.
On to `Cc1cccc(O)c1-c1cc(C2CCCNC2)c(C#N)c(N)n1` (centres unmarked) [Example 1-21], for which the pIC50 was 5.00 to 5.70.
As to `N#Cc1c(C2CCC(N)CC2)cc(-c2ccccc2O)nc1N` (centres unmarked) [Example 1-22], the pIC50 was over 6.30.
In the case of `N#Cc1c(C2CCCC(N)C2)cc(-c2ccccc2O)nc1N` (centres unmarked) [Example 1-23], the negative-log IC50 (pIC50) is over 6.30.
With `N#Cc1c([C@@H](N)Cc2ccccc2)cc(-c2ccccc2O)nc1N` [Example 1-25], the pIC50 is over 6.30.
On to `COc1ccc(C[C@H](N)c2cc(-c3ccccc3O)nc(N)c2C#N)cc1` [Example 1-26], for which the pIC50 is over 6.30.
In the case of `CCCC[C@H](N)c1cc(-c2ccccc2O)nc(N)c1C#N` [Example 1-28] it was over 6.30.
As for `N#Cc1c([C@@H](N)CCc2ccccc2)cc(-c2ccccc2O)nc1N` [Example 1-29], the negative-log IC50 (pIC50) is 5.70 to 6.30.
Turning to `N#Cc1c([C@@H](N)Cc2ccc(F)cc2)cc(-c2ccccc2O)nc1N` [Example 1-30], the negative-log IC50 (pIC50) is over 6.30.
Take `N#Cc1c([C@@H]2CCCN2)cc(-c2ccccc2O)nc1N` [Example 1-31]: the negative logarithm of the IC50 (pIC50) was 5.70 to 6.30.
Turning to `C[C@H](N)c1cc(-c2ccccc2O)nc(N)c1C#N` [Example 1-32], the pIC50 was over 6.30.
Take `CC(C)[C@H](N)c1cc(-c2ccccc2O)nc(N)c1C#N` [Example 1-33]: the pIC50 is over 6.30.
Regarding `N#Cc1c([C@H](N)Cc2ccccc2)cc(-c2ccccc2O)nc1N` [Example 1-34], the pIC50 was over 6.30.
`N#Cc1c(CC(N)c2ccccc2)cc(-c2ccccc2O)nc1N` (centres unmarked) [Example 1-35]: the pIC50 was over 6.30.
In the case of `CC(N)Cc1cc(-c2ccccc2O)nc(N)c1C#N` (centres unmarked) [Example 1-36] it was over 6.30; in that of `N#Cc1c(CCN)cc(-c2ccccc2O)nc1N` [Example 1-37], over 6.30; in that of `N#Cc1c(C2CCC(C(=O)O)CC2)cc(-c2ccccc2O)nc1N` (centres unmarked) [Example 1-38], over 6.30.
Regarding `CCc1cc(-c2ccccc2O)nc(N)c1C#N` [Example 1-39], the pIC50 is 5.00 to 5.70.
For the molecule `N#Cc1c([C@H](Cc2ccccc2)NC(=O)CCN2CCCCC2)cc(-c2ccccc2O)nc1N` [Example 1-40], the pIC50 was 5.70 to 6.30.
On to `N#Cc1c(C2CCCN(C(=O)CCN3CCCCC3)C2)cc(-c2ccccc2O)nc1N` (centres unmarked) [Example 1-41], for which the pIC50 was 5.70 to 6.30.
As to `CS(=O)(=O)N1CCCC(c2cc(-c3ccccc3O)nc(N)c2C#N)C1` (centres unmarked) [Example 1-42], the pIC50 was 5.00 to 5.70.
In the case of `CCCN(CCC)C1CCCC(c2cc(-c3ccccc3O)nc(N)c2C#N)C1` (centres unmarked) [Example 1-43] it was over 6.30; in that of `N#Cc1c(CCO)cc(-c2ccccc2O)nc1N` [Example 1-44], 5.70 to 6.30; in that of `Cc1cccc(COc2cccc(O)c2-c2cc(C3CCCNC3)c(C#N)c(N)n2)c1` (centres unmarked) [Example 2-07], over 6.30.
With `Cc1ccc(COc2cccc(O)c2-c2cc(C3CCCNC3)c(C#N)c(N)n2)cc1` (centres unmarked) [Example 2-08], the negative logarithm of the IC50 (pIC50) was over 6.30.
In the case of `N#Cc1c(C2CCCNC2)cc(-c2c(O)cccc2OCc2cccc(C(F)(F)F)c2)nc1N` (centres unmarked) [Example 2-09] it was over 6.30; in that of `N#Cc1c(C2CCCNC2)cc(-c2c(O)cccc2OCc2ccc(C(F)(F)F)cc2)nc1N` (centres unmarked) [Example 2-10], over 6.30.
Take `N#Cc1c(C2CCCNC2)cc(-c2c(O)cccc2OCc2cccc(Br)c2)nc1N` (centres unmarked) [Example 2-11]: the pIC50 was over 6.30.
On to `N#Cc1c(C2CCCNC2)cc(-c2c(O)cccc2OCc2ccccc2[N+](=O)[O-])nc1N` (centres unmarked) [Example 2-12], for which the pIC50 was over 6.30.
In the case of `N#Cc1c(C2CCCNC2)cc(-c2c(O)cccc2OCc2cccc([N+](=O)[O-])c2)nc1N` (centres unmarked) [Example 2-13] it was over 6.30; in that of `N#Cc1c(C2CCCNC2)cc(-c2c(O)cccc2OCc2ccc([N+](=O)[O-])cc2)nc1N` (centres unmarked) [Example 2-14], over 6.30.
`N#Cc1cccc(COc2cccc(O)c2-c2cc(C3CCCNC3)c(C#N)c(N)n2)c1` (centres unmarked) [Example 2-15]: the negative-log IC50 (pIC50) was over 6.30.
Consider `N#Cc1ccc(COc2cccc(O)c2-c2cc(C3CCCNC3)c(C#N)c(N)n2)cc1` (centres unmarked) [Example 2-16], for which the pIC50 was over 6.30.
As to `N#Cc1c(C2CCCNC2)cc(-c2c(O)cccc2OCc2ccccc2Cl)nc1N` (centres unmarked) [Example 2-17], the negative logarithm of the IC50 (pIC50) was over 6.30.
In the case of `N#Cc1c(C2CCCNC2)cc(-c2c(O)cccc2OCc2cccc(Cl)c2)nc1N` (centres unmarked) [Example 2-18], the pIC50 was over 6.30.
As for `N#Cc1c(C2CCCNC2)cc(-c2c(O)cccc2OCc2ccc(Cl)cc2)nc1N` (centres unmarked) [Example 2-19], the pIC50 was over 6.30.
`N#Cc1c(C2CCCNC2)cc(-c2c(O)cccc2OCc2c(Cl)cccc2Cl)nc1N` (centres unmarked) [Example 2-20]: the pIC50 is over 6.30.
`N#Cc1c(C2CCCNC2)cc(-c2c(O)cccc2OCc2ccc3ccccc3c2)nc1N` (centres unmarked) [Example 2-21]: the pIC50 is over 6.30.
As to `N#Cc1c(C2CCCNC2)cc(-c2c(O)cccc2OCCC2CCCCC2)nc1N` (centres unmarked) [Example 2-61], the negative logarithm of the IC50 (pIC50) was over 6.30.
In the case of `N#Cc1c(C2CCCNC2)cc(-c2c(O)cccc2OCC2CCC2)nc1N` (centres unmarked) [Example 2-62] it was over 6.30.
In the case of `CC(C)CCCOc1cccc(O)c1-c1cc(C2CCCNC2)c(C#N)c(N)n1` (centres unmarked) [Example 2-63] it was over 6.30.
As for `CCCCCCCOc1cccc(O)c1-c1cc(C2CCCNC2)c(C#N)c(N)n1` (centres unmarked) [Example 2-64], the pIC50 is over 6.30.
Consider `N#Cc1c(C2CCCNC2)cc(-c2c(O)cccc2OCC2CC2)nc1N` (centres unmarked) [Example 2-65], for which the negative logarithm of the IC50 (pIC50) was over 6.30.
For `CC(C)CCCOc1cccc(O)c1-c1cc(C2CCNCC2)c(C#N)c(N)n1` [Example 2-66], the pIC50 is over 6.30.
Turning to `CCCOc1cccc(O)c1-c1cc(C2CCNCC2)c(C#N)c(N)n1` [Example 2-67], the pIC50 is over 6.30.
Consider `N#Cc1c(C2CCNCC2)cc(-c2c(O)cccc2OCC2CCC2)nc1N` [Example 2-68], for which the pIC50 was over 6.30.
For the molecule `CCCCCOc1cccc(O)c1-c1cc(C2CCNCC2)c(C#N)c(N)n1` [Example 2-69], the pIC50 is over 6.30.
`N#Cc1c(C2CCNCC2)cc(-c2c(O)cccc2OCCC2CCCCC2)nc1N` [Example 2-70]: the pIC50 was over 6.30.
In the case of `CC(C)COc1cccc(O)c1-c1cc(C2CCNCC2)c(C#N)c(N)n1` [Example 2-71] it was over 6.30.
For the molecule `CCCCCCCOc1cccc(O)c1-c1cc(C2CCNCC2)c(C#N)c(N)n1` [Example 2-73], the pIC50 was over 6.30.
Turning to `C=CCOc1cccc(O)c1-c1cc(C2CCNCC2)c(C#N)c(N)n1` [Example 2-74], the pIC50 is over 6.30.
For `CCOc1cccc(O)c1-c1cc(C2CCNCC2)c(C#N)c(N)n1` [Example 2-75], the pIC50 was over 6.30.
In the case of `CCCCCCOc1cccc(O)c1-c1cc(C2CCNCC2)c(C#N)c(N)n1` [Example 2-76] it was over 6.30; in that of `CC(C)(C)C(=O)COc1cccc(O)c1-c1cc(C2CCCNC2)c(C#N)c(N)n1` (centres unmarked) [Example 2-77], over 6.30; in that of `CC(C)(C)C(=O)COc1cccc(O)c1-c1cc(C2CCNCC2)c(C#N)c(N)n1` [Example 2-78], over 6.30.
In the case of `N#Cc1c(C2CCCNC2)cc(-c2c(O)cccc2OCC2CCCCO2)nc1N` (centres unmarked) [Example 2-79] it was over 6.30.
In the case of `N#Cc1c(C2CCCNC2)cc(-c2c(O)cccc2OCC2CCCO2)nc1N` (centres unmarked) [Example 2-80] it was over 6.30.
Turning to `N#Cc1c(C2CCCNC2)cc(-c2c(O)cccc2OCC2CCCO2)nc1N` (centres unmarked) [Example 2-81], the pIC50 was over 6.30.
In the case of `N#Cc1c(C2CCNCC2)cc(-c2c(O)cccc2OCC2CCCO2)nc1N` (centres unmarked) [Example 2-82], the pIC50 was over 6.30.
As for `N#Cc1c(C2CCCNC2)cc(-c2c(O)cccc2OCCN2CCCCC2)nc1N` (centres unmarked) [Example 2-83], the pIC50 was 5.70 to 6.30.
Consider `N#Cc1c(C2CCCNC2)cc(-c2c(O)cccc2OCCN2CCOCC2)nc1N` (centres unmarked) [Example 2-84], for which the pIC50 is over 6.30.
In the case of `CN(C)CCOc1cccc(O)c1-c1cc(C2CCCNC2)c(C#N)c(N)n1` (centres unmarked) [Example 2-85] it was 5.70 to 6.30.

For the origin of these results see patent US6984649B1, “Pyridine derivatives” (Bayer Aktiengesellschaft, priority 2000, dated 2006).
